In the NIST ThermoML archive (doi:10.1016/j.fluid.2015.07.012):

Test: xn = mol fraction of the nth substance listed
Conditions: Liquid; for viscosity: Capillary tube (Ostwald / Ubbelohde) method; for mass density: Vibrating tube method

CO [methanol] + O
Conditions	mass density, 10000 kPa [kg/m3]	mass density, 20000 kPa [kg/m3]	mass density, 30000 kPa [kg/m3]	mass density, 40000 kPa [kg/m3]	viscosity, 10000 kPa [mPa·s]	viscosity, 20000 kPa [mPa·s]	viscosity, 30000 kPa [mPa·s]	viscosity, 40000 kPa [mPa·s]
350.7 K, x1 = 0.1	945.55	949.82	954.11	958.39	0.448	0.454	0.458	0.473
350.7 K, x1 = 0.2	917.41	921.49	927.03	931.54	0.503	0.514	0.526	0.543
350.7 K, x1 = 0.3	889.97	895.56	901.14	906.05	0.514	0.528	0.542	0.558
350.7 K, x1 = 0.4	865.13	870.55	876.99	882.71	0.512	0.529	0.544	0.565
350.7 K, x1 = 0.6	819.84	827.75	835.46	842.38	0.449	0.47	0.494	0.519
350.7 K, x1 = 0.8	780.91	789.25	797.6	805.96	0.379	0.4	0.416	0.443
350.7 K, x1 = 1	–	–	–	–	0.298	0.313	0.331	0.351
373.2 K, x1 = 0.1	928.71	932.78	939.53	943.52	0.33	0.337	0.339	0.347
373.2 K, x1 = 0.2	900.41	904.78	911.46	914.74	0.358	0.368	0.372	0.382
373.2 K, x1 = 0.3	870.61	877.31	883.51	889.33	0.364	0.378	0.385	0.398
373.2 K, x1 = 0.4	845.4	851.97	858.91	864.81	0.36	0.375	0.382	0.399
373.2 K, x1 = 0.6	799.33	807.98	817.6	823.64	0.324	0.342	0.353	0.368
373.2 K, x1 = 0.8	758.8	770.24	780.53	789.08	0.276	0.294	0.307	0.326
373.2 K, x1 = 1	725.29	737.85	748.83	758.66	0.227	0.25	0.259	0.275
476.2 K, x1 = 0.1	822.65	831.4	838.61	845.82	0.141	0.144	0.148	0.151
476.2 K, x1 = 0.2	781.47	792.25	802.47	810.27	0.14	0.143	0.15	0.152
476.2 K, x1 = 0.3	746.74	760.72	772.18	780.67	0.136	0.144	0.146	0.152
476.2 K, x1 = 0.4	714.67	730.97	744.11	754.89	0.129	0.138	0.144	0.149
476.2 K, x1 = 0.6	664.45	685.36	703.08	715.13	0.115	0.123	0.131	0.14
476.2 K, x1 = 0.8	617.54	647.18	668.6	683.43	0.101	0.113	0.122	0.129
476.2 K, x1 = 1	576.84	612.56	636.82	655.67	0.088	0.1	0.109	0.116
